Test results taken from article PMC8260145 (Archives of biochemistry and biophysics, 2021).
“And” between values parts separate entries of the source, which are not always exact repeats. Identical values can stand only once. Like-named read-outs stand apart in the source and are kept apart here.

Key:
recombinant human CYP3A4 [1] = target: T1, recombinant human CYP3A4 (Homo sapiens, UniProt P08684); test: Inhibition of C152 metabolism in SS
recombinant human CYP2B6 [2] = target: T2, recombinant human CYP2B6 (Homo sapiens, UniProt P20813); test: Inhibition of C152 metabolism in SS
T2 sequence (P20813 1-491): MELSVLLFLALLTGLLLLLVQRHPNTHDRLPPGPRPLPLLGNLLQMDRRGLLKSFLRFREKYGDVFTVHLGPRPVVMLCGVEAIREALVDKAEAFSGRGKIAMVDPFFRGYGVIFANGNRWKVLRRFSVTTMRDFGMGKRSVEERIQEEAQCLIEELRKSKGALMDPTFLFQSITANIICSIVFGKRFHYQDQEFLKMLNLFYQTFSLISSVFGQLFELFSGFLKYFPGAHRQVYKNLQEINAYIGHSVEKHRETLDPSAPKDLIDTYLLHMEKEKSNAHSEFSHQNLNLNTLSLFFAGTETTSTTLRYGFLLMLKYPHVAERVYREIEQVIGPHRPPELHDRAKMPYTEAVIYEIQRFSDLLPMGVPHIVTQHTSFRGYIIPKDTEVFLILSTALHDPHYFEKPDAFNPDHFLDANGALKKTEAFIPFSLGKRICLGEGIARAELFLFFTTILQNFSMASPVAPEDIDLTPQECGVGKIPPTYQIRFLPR

[3] = target: T3, recombinant human CYP2C19 (Homo sapiens, UniProt P33261); test: Inhibition of C152 metabolism in SS
human liver microsomes [4] = test: Inhibition of C152 metabolism in human liver microsomes; type: biochemical; settings: 30 μM C152; for IC50: read-out: IC50 ((+)-N-3-Benzylnirvanol)
recombinant human CYP3A5 [5] = target: T4, recombinant human CYP3A5 (Homo sapiens, UniProt P20815); test: Inhibition of C152 metabolism in SS; settings: SS(3A5), 30 μM C152
human liver microsomes [6] = type: in vitro ADME
CYP2C8 = settings: cited from earlier work
CYP2E1 = settings: cited from earlier work
recombinant human CYP2B6 [7] = target: T2, recombinant human CYP2B6; test: C152 demethylation, continuous fluorometric assay, Supersomes SS; type: in vitro ADME; settings: SS(2B6)
CYP2A6 [8] = settings: cited from earlier work
[9] = target: T3, recombinant human CYP2C19; test: C152 demethylation, continuous fluorometric assay, Supersomes SS; type: in vitro ADME; settings: SS(2C19)
recombinant human CYP3A4 [10] = test: as above; type: in vitro ADME
recombinant human CYP3A5 [11] = target: T4, recombinant human CYP3A5; test: as above; type: in vitro ADME; settings: SS(3A5)
recombinant human CYP3A5 [12] = target: T4, recombinant human CYP3A5; test: biochemical
recombinant human CYP3A4 [13] = target: T1, recombinant human CYP3A4
CYP2A6 [14] = test: 7-hydroxylation of coumarin in HLM; type: in vitro ADME, human; settings: HLM(ODN), added CYP2A6 0
[15] = HLM(FVT) + added CYP3A5 43 pmol/mg protein (molar ratio 0.125)
[16] = HLM(ODN) + added CYP3A5 54 pmol/mg protein (molar ratio 0.125)
[17] = N-demethylation of C152, HLM(ODN), added CYP2A6 0
[18] = N-demethylation of C152, HLM(ODN), added CYP2A6 54 pmol/mg protein (ratio 0.125)
[19] = N-demethylation of C152, HLM(ODN), added CYP2A6 108 pmol/mg protein (ratio 0.25)
[20] = N-demethylation of C152, HLM(ODN), added CYP2A6 216 pmol/mg protein (ratio 0.5)
[21] = N-demethylation of C152, HLM(ODN), added CYP2A6 433 pmol/mg protein (ratio 1)

T1 sequence (P08684 2-503 limits assumed): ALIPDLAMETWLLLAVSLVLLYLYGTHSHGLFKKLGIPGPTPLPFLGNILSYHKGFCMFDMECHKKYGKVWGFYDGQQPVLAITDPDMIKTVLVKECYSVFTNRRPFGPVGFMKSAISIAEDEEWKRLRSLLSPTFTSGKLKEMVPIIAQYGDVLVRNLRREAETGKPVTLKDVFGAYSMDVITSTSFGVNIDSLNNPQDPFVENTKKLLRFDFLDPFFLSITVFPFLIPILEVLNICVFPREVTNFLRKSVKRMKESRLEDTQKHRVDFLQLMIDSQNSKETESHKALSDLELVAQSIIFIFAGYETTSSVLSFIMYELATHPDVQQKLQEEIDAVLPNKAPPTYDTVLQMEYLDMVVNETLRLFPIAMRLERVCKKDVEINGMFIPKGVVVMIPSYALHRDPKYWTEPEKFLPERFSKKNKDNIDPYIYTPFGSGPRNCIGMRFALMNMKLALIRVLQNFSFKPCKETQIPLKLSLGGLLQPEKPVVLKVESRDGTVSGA
T3 sequence (P33261 whole entry): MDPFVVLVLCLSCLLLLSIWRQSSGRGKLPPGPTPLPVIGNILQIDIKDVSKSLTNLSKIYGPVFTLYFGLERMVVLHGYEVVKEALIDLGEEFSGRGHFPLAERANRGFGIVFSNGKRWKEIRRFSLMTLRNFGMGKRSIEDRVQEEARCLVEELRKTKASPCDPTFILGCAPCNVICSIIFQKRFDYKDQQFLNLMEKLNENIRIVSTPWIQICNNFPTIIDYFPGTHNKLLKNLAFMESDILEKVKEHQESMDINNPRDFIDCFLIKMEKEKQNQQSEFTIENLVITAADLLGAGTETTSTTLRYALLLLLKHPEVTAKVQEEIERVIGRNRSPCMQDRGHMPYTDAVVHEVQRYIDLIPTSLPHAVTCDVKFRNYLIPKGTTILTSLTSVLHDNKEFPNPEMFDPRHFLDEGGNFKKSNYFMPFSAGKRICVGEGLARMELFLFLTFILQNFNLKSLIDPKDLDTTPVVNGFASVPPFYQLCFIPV
T4 sequence (P20815 whole entry): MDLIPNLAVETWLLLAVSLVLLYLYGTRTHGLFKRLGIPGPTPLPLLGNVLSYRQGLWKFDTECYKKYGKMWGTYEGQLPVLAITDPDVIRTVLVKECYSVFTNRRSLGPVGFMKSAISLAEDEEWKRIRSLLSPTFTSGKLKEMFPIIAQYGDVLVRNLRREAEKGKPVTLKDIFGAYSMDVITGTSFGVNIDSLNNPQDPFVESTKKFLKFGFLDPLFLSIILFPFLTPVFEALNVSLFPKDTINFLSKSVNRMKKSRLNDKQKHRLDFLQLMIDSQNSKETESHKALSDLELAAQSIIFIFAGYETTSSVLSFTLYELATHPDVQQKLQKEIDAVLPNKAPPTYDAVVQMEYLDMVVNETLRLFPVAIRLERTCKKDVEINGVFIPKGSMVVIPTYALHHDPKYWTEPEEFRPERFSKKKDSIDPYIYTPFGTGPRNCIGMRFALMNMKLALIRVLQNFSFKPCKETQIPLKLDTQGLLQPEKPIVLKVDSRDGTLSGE

Clc1ccc(Cc2ccncc2)cc1
IC50 (recombinant human CYP3A4 [1]): 0.225 ± 0.073 µM
IC50 (recombinant human CYP2B6 [2]): 0.035 ± 0.01 µM
Maximal inhibition (recombinant human CYP2B6 [2]; SS(2B6), 30 μM C152): 95 ± 3%
IC50 [3]: 0.215 ± 0.118 µM
Maximal inhibition (human liver microsomes [4]; HLM(FVT)+CYP3A5 (12.5% of total P450)): 89 ± 8%
Maximal inhibition (human liver microsomes [4]; HLM(FVT)): 79 ± 17%
Maximal inhibition (human liver microsomes [4]; HLM(IHG)): 90 ± 3%
Maximal inhibition (human liver microsomes [4]; HLM(LBA)): 88 ± 12%
Maximal inhibition (human liver microsomes [4]; HLM(LFJ)): 84 ± 23%
Maximal inhibition (human liver microsomes [4]; HLM(NQO)): 92 ± 4%
Maximal inhibition (human liver microsomes [4]; HLM(ODN)+CYP3A5 (12.5% of total P450)): 70 ± 3%
Maximal inhibition (human liver microsomes [4]; HLM(ODN)): 91 ± 2%

CC[C@@]1(c2ccccc2)NC(=O)N(Cc2ccccc2)C1=O [(+)-N-3-Benzylnirvanol, (S)-(+)-N-3-benzylnirvanol]
Maximal inhibition ((+)-N-3-Benzylnirvanol) (recombinant human CYP3A4 [1]; SS(3A4), 30 μM C152): 59 ± 10%
IC50 (recombinant human CYP3A4 [1]; read-out: IC50 ((+)-N-3-Benzylnirvanol), SS(3A4), 30 μM C152): 27 ± 3 µM
Maximal inhibition ((+)-N-3-Benzylnirvanol) (recombinant human CYP2B6 [2]; SS(2B6), 30 μM C152): 81 ± 7%
IC50 (recombinant human CYP2B6 [2]; read-out: IC50 ((+)-N-3-Benzylnirvanol), SS(2B6), 30 μM C152): 8.5 ± 2.3 µM
Maximal inhibition ((+)-N-3-Benzylnirvanol) (recombinant human CYP3A5 [5]): 78 ± 21%
IC50 (recombinant human CYP3A5 [5]; read-out: IC50 ((+)-N-3-Benzylnirvanol)): 6.6 ± 1.5 µM
Maximal inhibition ((+)-N-3-Benzylnirvanol) (human liver microsomes [4]; HLM(FVT)): 62 ± 9%
Maximal inhibition ((+)-N-3-Benzylnirvanol) (human liver microsomes [4]; HLM(IHG)): 47 ± 12%
Maximal inhibition ((+)-N-3-Benzylnirvanol) (human liver microsomes [4]; HLM(LBA)+CYP2E1): 78 ± 36%
Maximal inhibition ((+)-N-3-Benzylnirvanol) (human liver microsomes [4]; HLM(LBA)): 57 ± 10%
Maximal inhibition ((+)-N-3-Benzylnirvanol) (human liver microsomes [4]; HLM(LFJ)+CYP2E1): 95 ± 6%
Maximal inhibition ((+)-N-3-Benzylnirvanol) (human liver microsomes [4]; HLM(LFJ)): 79 ± 22%
Maximal inhibition ((+)-N-3-Benzylnirvanol) (human liver microsomes [4]; HLM(NQO)): 78 ± 43%
Maximal inhibition ((+)-N-3-Benzylnirvanol) (human liver microsomes [4]; HLM(ODN)): 65 ± 4%
IC50 (human liver microsomes [4]; HLM(FVT)): 11 ± 4 µM
IC50 (human liver microsomes [4]; HLM(IHG)): 16 ± 2 µM
IC50 (human liver microsomes [4]; HLM(LBA)+CYP2E1): 26 ± 10 µM
IC50 (human liver microsomes [4]; HLM(LBA)): 0.51 ± 0.03 µM
IC50 (human liver microsomes [4]; HLM(LFJ)+CYP2E1): 12 ± 2 µM
IC50 (human liver microsomes [4]; HLM(LFJ)): 0.49 ± 0.12 µM
IC50 (human liver microsomes [4]; HLM(NQO)): 0.46 ± 0.39 µM
IC50 (human liver microsomes [4]; HLM(ODN)): 19 ± 15 µM

CN(C)c1ccc2c(C(F)(F)F)cc(=O)oc2c1 [C152, 7-Dimethylamino-4-trifluromethylcoumarin]
N (the Hill coefficient) (human liver microsomes [6]; [15]): 1.41 ± 0.66
S50 (human liver microsomes [6]; [15]): 1.73 ± 0.66 µM
Vmax (human liver microsomes [6]; [15]): 20.9 ± 5.7 min⁻¹
N (the Hill coefficient) (human liver microsomes [6]; HLM(FVT)+CYP2E1): 1.28 ± 0.33
S50 (human liver microsomes [6]; HLM(FVT)+CYP2E1): 18.9 ± 1.2 µM
Vmax (human liver microsomes [6]; HLM(FVT)+CYP2E1): 20.6 ± 1.3 min⁻¹
N (the Hill coefficient) (human liver microsomes [6]; HLM(FVT), intact): 1.49 ± 0.67
S50 (human liver microsomes [6]; HLM(FVT), intact): 14.2 ± 1.0 µM
Vmax (human liver microsomes [6]; HLM(FVT), intact): 33.6 ± 2.1 min⁻¹
N (the Hill coefficient) (human liver microsomes [6]; HLM(IHG), intact): 1.03 ± 0.09
S50 (human liver microsomes [6]; HLM(IHG), intact): 4.7 ± 2.7 µM
Vmax (human liver microsomes [6]; HLM(IHG), intact): 46.3 ± 3.8 min⁻¹
N (the Hill coefficient) (human liver microsomes [6]; HLM(LBA)+CYP2E1): 1.14 ± 0.26
S50 (human liver microsomes [6]; HLM(LBA)+CYP2E1): 8.8 ± 2.1 µM
Vmax (human liver microsomes [6]; HLM(LBA)+CYP2E1): 62.6 ± 5.6 min⁻¹
N (the Hill coefficient) (human liver microsomes [6]; HLM(LBA), intact): 1.76 ± 0.33
S50 (human liver microsomes [6]; HLM(LBA), intact): 4.4 ± 1.5 µM
Vmax (human liver microsomes [6]; HLM(LBA), intact): 75.0 ± 10.6 min⁻¹
N (the Hill coefficient) (human liver microsomes [6]; HLM(LFJ)+CYP2E1): 1.37 ± 0.44
S50 (human liver microsomes [6]; HLM(LFJ)+CYP2E1): 11.6 ± 2.8 µM
Vmax (human liver microsomes [6]; HLM(LFJ)+CYP2E1): 44.7 ± 5.9 min⁻¹
N (the Hill coefficient) (human liver microsomes [6]; HLM(LFJ), intact): 1.94 ± 0.51
S50 (human liver microsomes [6]; HLM(LFJ), intact): 4.8 ± 1.2 µM
Vmax (human liver microsomes [6]; HLM(LFJ), intact): 47.8 ± 3.2 min⁻¹
N (the Hill coefficient) (human liver microsomes [6]; HLM(NQO), intact): 1.03 ± 0.05
S50 (human liver microsomes [6]; HLM(NQO), intact): 3.7 ± 1.9 µM
Vmax (human liver microsomes [6]; HLM(NQO), intact): 29.9 ± 3.6 min⁻¹
N (the Hill coefficient) (human liver microsomes [6]; [16]): 1.73 ± 0.69
S50 (human liver microsomes [6]; [16]): 1.83 ± 0.96 µM
Vmax (human liver microsomes [6]; [16]): 22.4 ± 1.3 min⁻¹
N (the Hill coefficient) (human liver microsomes [6]; HLM(ODN), intact): 1.40 ± 0.17
S50 (human liver microsomes [6]; HLM(ODN), intact): 3.3 ± 0.5 µM and 3.29 ± 0.53 µM
Vmax (human liver microsomes [6]; HLM(ODN), intact): 37.1 ± 10.2 min⁻¹
N (the Hill coefficient) (human liver microsomes [6]; HLM(S9)+CYP2E1): 1.16 ± 0.37
S50 (human liver microsomes [6]; HLM(S9)+CYP2E1): 3.2 ± 1.5 µM
Vmax (human liver microsomes [6]; HLM(S9)+CYP2E1): 6.6 ± 0.8 min⁻¹
N (the Hill coefficient) (human liver microsomes [6]; HLM(S9), intact): 1.27 ± 0.25
S50 (human liver microsomes [6]; HLM(S9), intact): 5.5 ± 2.9 µM
Vmax (human liver microsomes [6]; HLM(S9), intact): 17.8 ± 4.6 min⁻¹
Km (human liver microsomes [6]; [17]): 3.29 ± 0.53 µM
N (human liver microsomes [6]; [17]): 1.40 ± 0.17
Vmax (human liver microsomes [6]; [17]): 37.1 ± 10.2 min⁻¹
Km (human liver microsomes [6]; [18]): 11.4 ± 0.2 µM
N (human liver microsomes [6]; [18]): 1.30 ± 0.21
Vmax (human liver microsomes [6]; [18]): 29.1 ± 1.3 min⁻¹
Km (human liver microsomes [6]; [19]): 4.15 ± 1.33 µM
N (human liver microsomes [6]; [19]): 1.04 ± 0.05
Vmax (human liver microsomes [6]; [19]): 60.1 ± 10.9 min⁻¹
Km (human liver microsomes [6]; [20]): 6.88 ± 2.47 µM
N (human liver microsomes [6]; [20]): 1.14 ± 0.23
Vmax (human liver microsomes [6]; [20]): 56.2 ± 4.9 min⁻¹
Km (human liver microsomes [6]; [21]): 4.57 ± 2.57 µM
N (human liver microsomes [6]; [21]): 1.38 ± 0.24
Vmax (human liver microsomes [6]; [21]): 75.3 ± 25.2 min⁻¹
S50 (CYP2C8): 12 ± 6 µM
turnover (CYP2C8): 2.6 ± 0.8 min⁻¹
activity of CYP2E1 with C152 (CYP2E1): do not exhibit any activity
S50 (recombinant human CYP2B6 [7]): 1.8 ± 0.2 µM
Vmax (recombinant human CYP2B6 [7]): 44.2 ± 14.8 min⁻¹
ability of CYP2A6 to catalyze demethylation of C152 (CYP2A6 [8]): lacks any ability to catalyze the demethylation of C152
S50 [9]: 5.7 ± 1.1 µM
Vmax [9]: 8.3 ± 3.4 min⁻¹
N (the Hill coefficient) (recombinant human CYP3A4 [10]; SS(3A4)): 1.61 ± 0.24
S50 (recombinant human CYP3A4 [10]; SS(3A4)): 4.5 ± 1.2 µM
Vmax (recombinant human CYP3A4 [10]; SS(3A4)): 23.8 ± 4.2 min⁻¹
N (the Hill coefficient) (recombinant human CYP3A4 [10]; SS(3A4)+CYP2E1): 1.28 ± 0.31
S50 (recombinant human CYP3A4 [10]; SS(3A4)+CYP2E1): 10.2 ± 2.8 µM
Vmax (recombinant human CYP3A4 [10]; SS(3A4)+CYP2E1): 34.0 ± 4.6 min⁻¹
S50 (recombinant human CYP3A5 [11]): 16.4 ± 4.8 µM
Vmax (recombinant human CYP3A5 [11]): 8.8 ± 1.0 min⁻¹

Clc1ccccc1C(c1ccccc1)(c1ccccc1)n1ccnc1 [Clotrimazole]
IC50 (recombinant human CYP3A5 [12]): 0.164 ± 0.039 µM
IC50 ([3]; read-out: IC50 (Clotrimazole), SS(2C19), 30 μM C152): 0.202 ± 0.113 µM
IC50 with CYP3A4 lower than the values observed with CYP2B6 and CYP2C19 (recombinant human CYP3A4 [13]): 1–2 orders of magnitude

O=c1ccc2ccccc2o1 [Coumarin, coumarin]
N (CYP2A6 [14]): 1.66 ± 0.41
Vmax (CYP2A6 [14]): 5.6 ± 0.5 min⁻¹
